Assay results published in US20090017103A1, “Antisense oligonucleotides for prevention of metastasis formation of cancer cells” (priority 2003, published 2009).
Several values for one entry are separate records, joined by “and”; a condition that tells them apart may be missing. Identical values can stand only once. Entries after “also recorded” stand apart in the source; their conditions may differ. Marks after values point to notes of the source that are not given here.

Legend:
[1] = system: MDA-MB-231^GFP cells; test: In vivo treatment with mini-osmotic pumps (osteolytic bone metastasis model);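 as to Mean size of lesion: mean lesion size in relative units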;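 as to Size of lesion (per animal): lesion size in relative units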; parameters: species or system nude rats; conditions: for X-ray scan of hind legs: lytic lesions (in words): FIG. 5-7; for T/C: vs NSO control; for T/C × 100: mean lesion size vs NSO control rats; for Incidence of metastasis: mini-osmotic pumps s.c., 7 mg/kg daily over four weeks
[2] = system: MDA-MB-231^GFP cells; test: In vivo model with pretreated MDA-MB-231^GFP cells (osteolytic bone metastasis); parameters: species or system nude rats; lesion size of the rat(s) that developed lytic metastasis, % of control / lesion sizes with respect to all animals of the group compared to untreated control / lesion size of individual animal compared to the untreated control / T/C % (mean lesion size compared to untreated control): concentration or dose not given beside the values; conditions: for T/C × 100: mean lesion size vs untreated control rats; for rats in which formation of osteolytic metastasis was inhibited (no visible metastasis): cells pre-exposed to ASO, observation period of eight weeks; for Incidence of metastasis: cells pretreated in vitro (10 μM);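 as to Mean size of lesion: mean lesion size in relative units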
[3] = system: MDA-MB-231 breast cancer cells; test: Clonogenicity assay (colony formation); format: cell-based, human; conditions: for inhibition of colony formation (colony growth inhibition): single exposure
Outline: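 MDA-MB-231 cells given lipofectamine-complexed ASO (5, 10 or 20 μM, 12 h) and/or ErPC3 (10, 14, 20 μM, 24 h), singly or in sequential cycles, then grown 48-72 h. 5000 cells plated in methylcellulose/30% FBS; MTT-stained colonies (≥30 cells) counted after 5-7 days.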

[4] = observation period 8 weeks, pretreated cells
[5] = pretreated cells, after eight weeks
[6] = pretreated cells, after four weeks

## 5′-GCT-TTC-TTC-GTT-TTC-ATT-TC-3′ [ASO-BSPII-6]
[1]; eight weeks after tumor cell implantation
  X-ray scan of hind legs: lytic lesions (in words): clear increase of lytic lesions in the tibia, however new formation of bone tissue at the edges of the lesions
[1]; four weeks after tumor cell implantation, therapy from implantation
  X-ray scan of hind legs: lytic lesions (in words): small lytic lesions in the tibia
[1]; six weeks after tumor cell implantation
  X-ray scan of hind legs: lytic lesions (in words): visible lytic lesions in the tibia
[1]; ten weeks after tumor cell implantation
  X-ray scan of hind legs: lytic lesions (in words): lytic lesions are no longer visible in the region of the tibia
[1]; mini-osmotic pumps, 12 weeks
  animals that did not develop metastases: one animal out of the five
[1]; mini-osmotic pumps, week 4
  T/C: 39%
[1]; mini-osmotic pumps, week 12
  T/C: 2%
[1]; week 4
  T/C × 100: 39
  Incidence of metastasis: 4/5
[1]; week 4, mini-osmotic pumps
  Mean size of lesion: 13 R.U.
  Size of lesion (per animal): 11 R.U. and 0 R.U. and 32 R.U. and 8 R.U. and 23 R.U.
[1]; week 6
  T/C × 100: 18
  Incidence of metastasis: 3/5
[1]; week 6, mini-osmotic pumps
  Mean size of lesion: 32 R.U.
  Size of lesion (per animal): 39 R.U. and 0 R.U. (2×) and 83 R.U. and 37 R.U.
[1]; week 8
  T/C × 100: 11
  Incidence of metastasis: 3/5
[1]; week 8, mini-osmotic pumps
  Mean size of lesion: 29 R.U.
  Size of lesion (per animal): 52 R.U. and 0 R.U. (2×) and 50 R.U. and 43 R.U.
[1]; week 9
  T/C × 100: 7
  Incidence of metastasis: 3/5
[1]; week 9, mini-osmotic pumps
  Mean size of lesion: 28 R.U.
  Size of lesion (per animal): 28 R.U. and 0 R.U. (2×) and 36 R.U. and 78 R.U.
[1]; week 10
  T/C × 100: 5
  Incidence of metastasis: 3/5
[1]; week 10, mini-osmotic pumps
  Mean size of lesion: 20 R.U.
  Size of lesion (per animal): 17 R.U. and 0 R.U. (2×) and 29 R.U. and 52 R.U.
[1]; week 12
  T/C × 100: 2
  Incidence of metastasis: 2/5
[1]; week 12, mini-osmotic pumps
  Mean size of lesion: 9 R.U.
  Size of lesion (per animal): 0 R.U. (3×) and 18 R.U. and 29 R.U.
[2]; 4 weeks
  T/C × 100: 1.6
[2]; 6 weeks
  T/C × 100: 2.9
[2]; 8 weeks
  T/C × 100: 9.1
[2]; FIG. 3 and FIG. 4, one rat each, cells pre-exposed
  X-ray scan of hind legs: osteolytic lesions (in words): a minute osteolytic lesion in the tibia only; also recorded: a small lesion in the tibia
[2]
  rats in which formation of osteolytic metastasis was inhibited (no visible metastasis): two out of four
[2]; listed as ASO-BSPII-06
  rats in which formation of osteolytic metastasis was inhibited (no visible metastasis): two of four and 2 of 4
[2]; observation period 4 weeks
  Incidence of metastasis: 1/4
[2]; observation period 4 weeks, pretreated cells
  Mean size of lesion: 3.5 R.U.
[2]; observation period 6 weeks
  Incidence of metastasis: 1/4
[2]; observation period 6 weeks, pretreated cells
  Mean size of lesion: 8.8 R.U.
[2]; observation period 8 weeks
  Incidence of metastasis: 2/4
[2]; [4]
  Mean size of lesion: 31.5 R.U.
  Size of lesion (per animal): 106^5) R.U.
[2]; [5]
  T/C % (mean lesion size compared to untreated control): 9.1%
  lesion size of individual animal compared to the untreated control: about 30% and 6%
[2]; [6]
  animals in which formation of lytic metastases was prevented: three out of four
  lesion size of individual animal compared to the untreated control: 6.4%
[2]; pretreated cells, after six weeks
  lesion size of individual animal compared to the untreated control: about 12%
[2]; pretreated cells, week 4
  lesion size of the rat(s) that developed lytic metastasis: 14 R.U.
[2]; pretreated cells, week 4, vs mean of the two control groups (197 R.U.)
  lesion size of the rat(s) that developed lytic metastasis, % of control: 7%
[2]; pretreated cells, week 8
  lesion size of the rat(s) that developed lytic metastasis: 63 R.U.
[2]; pretreated cells, week 8, vs mean of the two control groups (416 R.U.)
  lesion size of the rat(s) that developed lytic metastasis, % of control: 15%
[3]; Exp. III a, repeated exposure 2 × 5 μM
  % Control: 91%
[3]; Exp. III a, repeated exposure 2 × 5 μM, control 456
  Mean colony no.: 415^6,8)
[3]; Exp. III a, repeated exposure 2 × 10 μM
  % Control: 82%
[3]; Exp. III a, repeated exposure 2 × 10 μM, control 456
  Mean colony no.: 373^8)
[3]; Exp. III a, repeated exposure 2 × 20 μM
  % Control: 72%
[3]; Exp. III a, repeated exposure 2 × 20 μM, control 456
  Mean colony no.: 326^8)
[3]; Experiment I, single treatment, 5 μM
  % Control: 89%
[3]; Experiment I, single treatment, 5 μM, control 778
  Mean colony no.: 692^6)
[3]; Experiment I, single treatment, 10 μM
  % Control: 81%
[3]; Experiment I, single treatment, 10 μM, control 778
  Mean colony no.: 632^7)
[3]; Experiment I, single treatment, 20 μM
  % Control: 61%
[3]; Experiment I, single treatment, 20 μM, control 778
  Mean colony no.: 478
[3]; Experiment III b, repeated exposure 2 × 5 μM
  % Control: 70%
[3]; Experiment III b, repeated exposure 2 × 5 μM, control 517
  Mean colony no.: 363^6,8)
[3]; Experiment III b, repeated exposure 2 × 10 μM
  % Control: 55%
[3]; Experiment III b, repeated exposure 2 × 10 μM, control 517
  Mean colony no.: 282^8)
[3]; Experiment III b, repeated exposure 2 × 20 μM
  % Control: 49%
[3]; Experiment III b, repeated exposure 2 × 20 μM, control 517
  Mean colony no.: 251^8)
[3]; 5 μM
  inhibition of colony formation (colony growth inhibition): 11%
[3]; 10 μM
  inhibition of colony formation (colony growth inhibition): 19%
[3]; 20 μM
  inhibition of colony formation (colony growth inhibition): 39%
[3]; twofold vs single ASO exposure
  repeated exposure compared with single exposure, colony formation (in words): no increased inhibition of colony formation as compared with single exposure
